Here are results for four compounds from ChEMBL document CHEMBL5150058, “Synthesis and biological evaluation of novel photo-clickable adenosine and cyclic ADP-ribose analogs: 8-N3-2'-O-propargyladenosine and 8-N3-2'-O-propargyl-cADPR” (Bioorg Med Chem, 2022).

The source made the active and inactive calls. No cut-off for these calls is given here.

A short description of assay [1]: Antagonist activity at cADPR binding protein in sea urchin egg homogenate assessed as inhibition of cADPR-induced Ca2+ release by Fluo-3 based fluorescence assay. The class given is tissue-based, Strongylocentrotus purpuratus.
Assay [2] deals with Strongylocentrotus purpuratus. Put plainly: Agonist activity at cADPR binding protein in sea urchin egg homogenate assessed as increase in Ca2+ release at 100 uM by Fluo-3 based fluorescence assay relative to control. The class given is tissue-based.
Assay [3] in a line: Agonist activity at cADPR binding protein in sea urchin egg homogenate assessed as increase in Ca2+ release by Fluo-3 based fluorescence assay. The class given is tissue-based, Strongylocentrotus purpuratus.
A further assay relates to U2OS. Put plainly: Agonist activity at cADPR binding protein in human U2OS cells expressing GCaMP6M assessed as increase in Ca2+ release at 30 uM by confocal Ca2+ imaging analysis. Format: cell-based. Particulars: filed as agonist.

In general, IC50 refers to the concentration that gives 50% inhibition. As a reminder, the EC50 is the concentration giving half of the maximal effect.

`[N-]=[N+]=Nc1nc2c(N)[n+]3cnc2n1[C@@H]1O[C@H](COP(=O)(O)OP(=O)(O)OC[C@H]2O[C@@H]3[C@H](O)[C@@H]2O)[C@@H](O)[C@H]1O`: in assay [1], the IC50 amounted to 7 nM.

In the case of `C#CCO[C@@H]1[C@H](O)[C@H]2COP(=O)(O)OP(=O)(O)OC[C@H]3O[C@H]([C@H](O)[C@@H]3O)[n+]3cnc4c(nc(N=[N+]=[N-])n4[C@@H]1O2)c3N`, the Activity in assay [2] was < 10%.

Consider `Nc1c2ncn3c2nc[n+]1[C@@H]1O[C@H](COP(=O)([O-])OP(=O)(O)OC[C@H]2O[C@@H]3[C@H](O)[C@@H]2O)[C@@H](O)[C@H]1O`, for which, in assay [3], the EC50 was 110 nM. For the same compound, the outcome with U2OS was Active.

As for `C#CCO[C@@H]1[C@H](O)[C@H]2COP(=O)(O)OP(=O)([O-])OC[C@H]3O[C@H]([C@H](O)[C@@H]3O)[n+]3cnc4c(ncn4[C@@H]1O2)c3N`, the EC50 in assay [3] amounted to 8460 nM.
